Experimental data as given in patent publication US20230339851A1, “CXCR6 SULFONAMIDE COMPOUNDS” (CHEMOCENTRYX, INC., priority 2022, published 2023).

biological target: T1, human CXCR6 (Homo sapiens, UniProt O00574); experiment: Radioligand Binding Assay (125I-CXCL16 displacement); details: L1.2 cells stably transfected with human CXCR6 cDNA, 0.1 nM 125I-CXCL16, 4° C., three-hour incubation; read-out: Potency (IC50)
T1 construct: expressed in transfected cells
How it was run: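 L1.2 cells stably expressing human CXCR6 incubated 3 h at 4 °C in HBSS/0.1% BSA with 0.1 nM 125I-CXCL16 and graded compound concentrations. Bound radioactivity collected by filtration and counted; IC50 from 3-parameter nonlinear regression.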

T1 sequence (O00574 whole entry): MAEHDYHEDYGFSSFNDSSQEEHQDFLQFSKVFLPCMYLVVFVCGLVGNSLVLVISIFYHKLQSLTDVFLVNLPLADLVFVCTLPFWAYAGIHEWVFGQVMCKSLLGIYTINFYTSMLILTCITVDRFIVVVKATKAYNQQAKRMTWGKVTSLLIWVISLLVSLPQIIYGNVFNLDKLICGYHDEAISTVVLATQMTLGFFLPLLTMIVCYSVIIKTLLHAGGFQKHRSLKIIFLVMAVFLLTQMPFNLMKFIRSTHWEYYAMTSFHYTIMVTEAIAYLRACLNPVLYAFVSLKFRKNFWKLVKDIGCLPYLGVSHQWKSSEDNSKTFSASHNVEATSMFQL

| SMILES | IC50 [nM] |
| --- | --- |
| Cc1cc(NC(=O)c2ccnn2C)cc(F)c1S(=O)(=O)Nc1cccc(C(F)(F)F)c1 [Example 1.520] | 750 to 2000 |
| CCOc1cc(NC(=O)[C@@H](O)C(C)C)ccc1S(=O)(=O)Nc1ccc(C2CC2)c(OC(F)(F)F)c1 [Example 1.521] | ≤ 200 |
| Cc1cc(NC(=O)C2CCN(C)CC2)ccc1S(=O)(=O)Nc1cccc(C(F)(F)F)c1 [Example 1.522] | 2000 to 20000 |
| CCOc1cc(NC(=O)[C@@H](CO)C(C)C)ccc1S(=O)(=O)Nc1ccc(Cl)c(C(F)(F)F)c1 [Example 1.523] | ≤ 200 |
| Cc1cc(NC(=O)c2ccncc2)ccc1S(=O)(=O)Nc1cccc(C(F)(F)F)c1 [Example 1.524] | 200 to 750 |
| COc1cc(NC(=O)C2=C(C)OCCC2)ccc1S(=O)(=O)Nc1cccc(OC(F)(F)F)c1 [Example 1.525] | 200 to 750 |
| COc1cc(NC(=O)CC2CCOC2)ccc1S(=O)(=O)Nc1cccc(C(F)(F)F)c1 (centres unmarked) [Example 1.526] | 2000 to 20000 |
| CCOc1cc(NC(=O)C(O)c2ccc(O)cc2)ccc1S(=O)(=O)Nc1cccc(OC(F)(F)F)c1 (centres unmarked) [Example 1.527] | 200 to 750 |
| CCOc1cc(NC(=O)C(O)c2cccc(Cl)c2)ccc1S(=O)(=O)Nc1cccc(OC(F)(F)F)c1 (centres unmarked) [Example 1.528] | ≤ 200 |
| CCOc1cc(NC(=O)c2cn[nH]c(=O)c2)ccc1S(=O)(=O)Nc1cccc(OC(F)(F)F)c1 [Example 1.529] | ≤ 200 |
| CCOc1cc(NC(=O)c2ccnnc2)ccc1S(=O)(=O)Nc1cccc(OC(F)(F)F)c1 [Example 1.530] | ≤ 200 |
| CCOc1cc(NC(=O)C(C)O)ccc1S(=O)(=O)Nc1cccc(OC(F)(F)F)c1 (centres unmarked) [Example 1.532] | 200 to 750 |
| CCOc1cc(NC(=O)[C@@H](O)C(C)C)ccc1S(=O)(=O)Nc1ccc(Cl)c(OC(F)(F)F)c1 [Example 1.533] | ≤ 200 |
| COc1cccc(C(=O)Nc2ccc(S(=O)(=O)Nc3cccc(C(F)(F)F)c3)c(C)c2)c1 [Example 1.534] | 2000 to 20000 |
| COc1cc(NC(=O)C(O)C(C)C)ccc1S(=O)(=O)Nc1cccc(C(F)(F)F)c1 (centres unmarked) [Example 1.535] | ≤ 200 |
| CCOc1cc(NC(=O)[C@@H](CO)c2ccccc2)ccc1S(=O)(=O)Nc1cccc(OC(F)(F)F)c1 [Example 1.536] | ≤ 200 |
| COc1cc(NC(C)=O)cc(F)c1S(=O)(=O)Nc1cccc(OC(F)(F)F)c1 [Example 1.537] | 2000 to 20000 |
| Cc1cc(NC(=O)C2CCCCC2C)ccc1S(=O)(=O)Nc1cccc(C(F)(F)F)c1 (centres unmarked) [Example 1.538] | 750 to 2000 |
| CCOc1cc(NC(=O)[C@H]2CC=CC[C@H]2CO)ccc1S(=O)(=O)Nc1cccc(OC(F)(F)F)c1 [Example 1.539] | 200 to 750 |
| CCOc1cc(NC(=O)[C@@H](CO)C(C)C)ccc1S(=O)(=O)Nc1cccc(Cl)c1C [Example 1.540] | 200 to 750 |
| CCOc1cc(NC(=O)[C@@H](CO)c2ccccc2)ccc1S(=O)(=O)Nc1cccc(C(C)C)c1 [Example 1.541] | ≤ 200 |
| CC(C)Oc1cc(NC(=O)c2ccns2)ccc1S(=O)(=O)Nc1cccc(C(F)(F)F)c1 [Example 1.542] | 2000 to 20000 |
| CCOc1cc(NC(=O)[C@@H](NC(C)=O)C(C)C)ccc1S(=O)(=O)Nc1ccc(C)c(C(F)(F)F)c1 [Example 1.543] | ≤ 200 |
| COCC(=O)Nc1ccc(S(=O)(=O)Nc2cccc(C(F)(F)F)c2)c(C)c1 [Example 1.544] | 2000 to 20000 |
| CCOc1cc(NC(=O)C2CCCC(O)C2)ccc1S(=O)(=O)Nc1cccc(OC(F)(F)F)c1 (centres unmarked) [Example 1.545] | 750 to 2000 |
| CCOc1cc(NC(=O)[C@@H](CO)c2ccccc2)ccc1S(=O)(=O)Nc1ccc(OC)c(C(F)(F)F)c1 [Example 1.546] | 200 to 750 |
| CCOc1cc(NC(=O)[C@H](O)c2ccccc2)ccc1S(=O)(=O)Nc1cccc(OC(F)(F)F)c1 [Example 1.547] | 200 to 750 |

| SMILES | IC50 [nM] |
| --- | --- |
| C=Cc1cc(NS(=O)(=O)c2ccc(NC(=O)[C@@H](CO)C(C)C)cc2OCC)ccc1C [Example 1.548] | ≤ 200 |
| O=C(Nc1ccc(S(=O)(=O)Nc2cccc(C(F)(F)F)c2)c(F)c1)c1ccccc1 [Example 1.549] | 2000 to 20000 |
| CCOc1cc(NC(=O)[C@@H](CO)c2ccccc2)ccc1S(=O)(=O)Nc1ccc(Cl)c(OC)c1 [Example 1.550] | 200 to 750 |
| CCCOc1cc(NC(=O)[C@@H](CO)C(C)C)ccc1S(=O)(=O)Nc1cccc(OC(F)(F)F)c1 [Example 1.551] | ≤ 200 |
| COc1cc(NC(=O)c2ccnn2C)ccc1S(=O)(=O)Nc1ccc(C)c(C(F)(F)F)c1 [Example 1.552] | ≤ 200 |
| Cc1cc(NC(=O)CN(C)C)ccc1S(=O)(=O)Nc1cccc(C(F)(F)F)c1 [Example 1.553] | 2000 to 20000 |
| COc1cc(NC(=O)[C@@H]2CCC[C@@H](OC)C2)ccc1S(=O)(=O)Nc1cccc(C(F)(F)F)c1 [Example 1.554] | 2000 to 20000 |
| CCOc1cc(NC(=O)[C@@H](O)C(C)C)ccc1S(=O)(=O)Nc1cccc(Cl)c1Cl [Example 1.555] | 2000 to 20000 |
| CCOc1cc(NC(=O)[C@@H](O)c2ccccc2)ccc1S(=O)(=O)Nc1ccc(C2CC2)c(OC(F)(F)F)c1 [Example 1.556] | 200 to 750 |
| COc1cc(NC(=O)[C@@H](O)C(C)C)ccc1S(=O)(=O)Nc1ccc(C)c(OC(F)(F)F)c1 [Example 1.557] | ≤ 200 |
| CCOc1cc(NC(=O)[C@@H](CO)C(C)C)ccc1S(=O)(=O)Nc1ccc(C(F)(F)F)cc1 [Example 1.558] | 200 to 750 |
| COc1cc(NC(=O)c2ccnn2C)ccc1S(=O)(=O)Nc1ccc(OC(F)(F)F)c(Cl)c1 [Example 1.559] | 750 to 2000 |
| CCOc1cc(NC(=O)[C@@H](N)c2ccccc2)ccc1S(=O)(=O)Nc1ccc(F)c(OC(F)(F)F)c1 [Example 1.560] | ≤ 200 |
| COc1cc(NC(=O)[C@@H]2CCC[C@H](OC)C2)ccc1S(=O)(=O)Nc1cccc(C(F)(F)F)c1 [Example 1.561] | 2000 to 20000 |
| CCOc1cc(NC(=O)[C@@H]2CCCCC[C@H]2O)ccc1S(=O)(=O)Nc1cccc(OC(F)(F)F)c1 [Example 1.562] | 200 to 750 |
| CCOc1cc(NC(=O)C(CO)C(C)C)ccc1S(=O)(=O)Nc1cccc(OC(F)(F)F)c1 (centres unmarked) [Example 1.563] | ≤ 200 |
| CCOc1cc(NC(=O)C(O)c2ccc(Br)cc2)ccc1S(=O)(=O)Nc1cccc(OC(F)(F)F)c1 (centres unmarked) [Example 1.564] | 200 to 750 |
| COc1cc(NC(=O)C2CC3C=CC2O3)ccc1S(=O)(=O)Nc1cccc(C(F)(F)F)c1 (centres unmarked) [Example 1.565] | 200 to 750 |
| CCOc1cc(NC(=O)Cc2ccccc2OC)ccc1S(=O)(=O)Nc1cccc(OC(F)(F)F)c1 [Example 1.566] | 200 to 750 |
| CCOc1cc(NC(=O)c2ccns2)ccc1S(=O)(=O)Nc1cccc(C(F)(F)F)c1 [Example 1.567] | ≤ 200 |
| CCOc1cc(NC(=O)c2ccc(OC)cc2)ccc1S(=O)(=O)Nc1cccc(OC(F)(F)F)c1 [Example 1.568] | 750 to 2000 |
| Cc1cc(NC(=O)C(CO)c2ccccc2)ccc1S(=O)(=O)Nc1cccc(OC(F)(F)F)c1 (centres unmarked) [Example 1.569] | 200 to 750 |
| CCOc1cc(NC(=O)[C@@H](O)C(C)C)ccc1S(=O)(=O)Nc1cccc(Cl)c1C [Example 1.570] | 750 to 2000 |
| CCOc1cc(NC(=O)C(CC)C(=O)O)ccc1S(=O)(=O)Nc1cccc(OC(F)(F)F)c1 (centres unmarked) [Example 1.571] | ≤ 200 |
| COc1cc(NC(=O)C2CCCCO2)ccc1S(=O)(=O)Nc1cccc(C(F)(F)F)c1 (centres unmarked) [Example 1.572] | 750 to 2000 |
| CC(=O)Nc1ccc(S(=O)(=O)Nc2cccc(C(F)(F)F)c2)c(C(C)C)c1 [Example 1.573] | 2000 to 20000 |
